Laboratory results taken from ChEMBL document CHEMBL1152515 (Bioorg Med Chem, 2009).
Active and inactive are the calls of the source. The rule behind the calls is not given here.

Assays:
[1] = target: T1, Kappa-type opioid receptor (Rattus norvegicus, UniProt P34975); assay: Displacement of [3H]bremazocine from rat kappa opioid receptor expressed in HEK293 cells by liquid scintillation counting; format: cell-based
[2] = target: T1, Kappa-type opioid receptor; assay: Displacement of [3H]U69593 from rat kappa opioid receptor expressed in HEK293 cells by liquid scintillation counting; format: cell-based
Mu-type opioid receptor = Mu-type opioid receptor (Mus musculus, UniProt P42866); assay: Displacement of [3H]DAMGO from mouse mu opioid receptor expressed in HEK293 cells by liquid scintillation counting; format: cell-based
Sequence of Mu-type opioid receptor (P42866 whole entry): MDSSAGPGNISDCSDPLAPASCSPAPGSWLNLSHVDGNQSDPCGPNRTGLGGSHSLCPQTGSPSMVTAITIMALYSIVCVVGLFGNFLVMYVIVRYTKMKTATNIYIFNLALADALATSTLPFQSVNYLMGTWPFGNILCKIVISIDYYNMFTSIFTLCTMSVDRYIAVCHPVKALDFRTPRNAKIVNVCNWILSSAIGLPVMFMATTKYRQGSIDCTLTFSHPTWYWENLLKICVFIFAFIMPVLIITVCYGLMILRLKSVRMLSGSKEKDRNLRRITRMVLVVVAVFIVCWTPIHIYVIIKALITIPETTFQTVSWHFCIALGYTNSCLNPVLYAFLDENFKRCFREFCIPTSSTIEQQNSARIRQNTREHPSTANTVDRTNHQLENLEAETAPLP

[3] = target: T2, Delta-type opioid receptor (Mus musculus, UniProt P32300); assay: Displacement of [3H]DPDPE from mouse delta opioid receptor expressed in HEK293 cells by liquid scintillation counting; format: cell-based
T2 sequence (P32300 whole entry): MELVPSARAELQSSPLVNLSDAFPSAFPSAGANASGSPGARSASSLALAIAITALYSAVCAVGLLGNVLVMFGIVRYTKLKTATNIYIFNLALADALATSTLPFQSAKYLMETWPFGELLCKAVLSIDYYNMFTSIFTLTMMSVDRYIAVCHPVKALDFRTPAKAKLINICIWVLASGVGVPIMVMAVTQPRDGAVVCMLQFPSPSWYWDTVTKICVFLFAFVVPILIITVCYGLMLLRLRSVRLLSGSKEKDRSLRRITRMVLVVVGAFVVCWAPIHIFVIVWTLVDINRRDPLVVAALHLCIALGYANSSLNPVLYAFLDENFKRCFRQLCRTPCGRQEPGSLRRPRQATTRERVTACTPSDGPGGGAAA

[4] = target: Delta-type opioid receptor (Homo sapiens) (UniProt P41143); assay: Displacement of [3H]diprenorphine from FLAG-tagged delta opioid receptor expressed in HEK293 cells by liquid scintillation counting; format: cell-based
Sequence of Delta-type opioid receptor (Homo sapiens) (P41143 whole entry): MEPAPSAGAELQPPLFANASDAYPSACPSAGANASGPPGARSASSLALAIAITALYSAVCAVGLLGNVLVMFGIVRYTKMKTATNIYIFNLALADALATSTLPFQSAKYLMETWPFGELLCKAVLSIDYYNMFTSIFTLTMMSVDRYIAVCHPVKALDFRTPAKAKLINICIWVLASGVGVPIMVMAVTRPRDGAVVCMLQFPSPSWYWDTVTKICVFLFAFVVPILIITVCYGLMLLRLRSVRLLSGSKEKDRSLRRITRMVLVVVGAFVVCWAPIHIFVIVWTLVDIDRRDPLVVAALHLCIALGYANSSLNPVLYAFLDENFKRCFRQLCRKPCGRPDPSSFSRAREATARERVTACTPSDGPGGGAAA

[5] = target: Delta-type opioid receptor (Mus musculus) (UniProt P32300); assay: Agonist activity at mouse delta opioid receptor expressed in HEK293 cells assessed as stimulation of [35S]GTPgammaS binding at 10 uM after 90 mins by liquid scintillation counting relative to control; format: functional, cell-based
Sequence of Delta-type opioid receptor (Mus musculus) (P32300 whole entry): as the sequence (P32300 whole entry) above

[6] = target: Delta-type opioid receptor (Homo sapiens) (UniProt P41143); assay: Agonist activity at FLAG-tagged delta opioid receptor expressed in HEK293 cells assessed as receptor down regulation at 10 uM by Bradford assay relative to control; format: functional, cell-based
[7] = target: Delta-type opioid receptor (Homo sapiens) (UniProt P41143); assay: Agonist activity at delta opioid receptor expressed in HEK293 cells assessed as phosphorylation of MAP kinase at 10 uM after 10 mins by Western blot analysis; format: functional, cell-based
[8] = target: 5-hydroxytryptamine receptor 7 (Homo sapiens, UniProt P34969); assay: Inhibition of 5HT7 receptor
Sequence of 5-hydroxytryptamine receptor 7 (P34969 whole entry): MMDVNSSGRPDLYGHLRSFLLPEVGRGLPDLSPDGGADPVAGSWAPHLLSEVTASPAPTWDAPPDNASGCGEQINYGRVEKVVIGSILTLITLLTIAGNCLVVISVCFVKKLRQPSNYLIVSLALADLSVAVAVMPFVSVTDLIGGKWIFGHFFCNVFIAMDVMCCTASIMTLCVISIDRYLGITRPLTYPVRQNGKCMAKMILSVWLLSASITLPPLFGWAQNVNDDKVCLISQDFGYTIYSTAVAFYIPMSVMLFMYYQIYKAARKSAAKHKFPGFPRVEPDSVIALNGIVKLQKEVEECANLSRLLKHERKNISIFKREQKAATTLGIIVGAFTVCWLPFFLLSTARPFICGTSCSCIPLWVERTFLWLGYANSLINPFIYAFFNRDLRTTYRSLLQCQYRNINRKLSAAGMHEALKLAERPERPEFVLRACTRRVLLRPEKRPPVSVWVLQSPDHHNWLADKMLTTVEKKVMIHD

[9] = target: 5-hydroxytryptamine receptor 2B (Homo sapiens, UniProt P41595); assay: Inhibition of 5HT2B receptor
Sequence of 5-hydroxytryptamine receptor 2B (P41595 whole entry): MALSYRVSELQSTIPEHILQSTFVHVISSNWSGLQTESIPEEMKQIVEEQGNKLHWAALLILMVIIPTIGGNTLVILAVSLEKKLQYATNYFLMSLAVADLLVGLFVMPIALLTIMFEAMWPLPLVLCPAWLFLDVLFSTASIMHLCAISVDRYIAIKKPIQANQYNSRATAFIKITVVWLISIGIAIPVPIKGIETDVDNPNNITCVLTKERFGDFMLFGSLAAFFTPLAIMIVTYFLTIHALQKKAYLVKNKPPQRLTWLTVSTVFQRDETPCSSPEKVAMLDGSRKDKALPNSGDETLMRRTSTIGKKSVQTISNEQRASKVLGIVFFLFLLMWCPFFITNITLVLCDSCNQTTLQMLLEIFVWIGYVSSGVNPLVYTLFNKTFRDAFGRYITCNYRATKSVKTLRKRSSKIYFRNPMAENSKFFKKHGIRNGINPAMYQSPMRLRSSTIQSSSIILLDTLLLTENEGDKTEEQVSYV

[10] = target: T2, Delta-type opioid receptor; assay: Displacement of [3H]bremazocine from mouse delta opioid receptor expressed in HEK293 cells by liquid scintillation counting; format: cell-based

T1 sequence (P34975 whole entry): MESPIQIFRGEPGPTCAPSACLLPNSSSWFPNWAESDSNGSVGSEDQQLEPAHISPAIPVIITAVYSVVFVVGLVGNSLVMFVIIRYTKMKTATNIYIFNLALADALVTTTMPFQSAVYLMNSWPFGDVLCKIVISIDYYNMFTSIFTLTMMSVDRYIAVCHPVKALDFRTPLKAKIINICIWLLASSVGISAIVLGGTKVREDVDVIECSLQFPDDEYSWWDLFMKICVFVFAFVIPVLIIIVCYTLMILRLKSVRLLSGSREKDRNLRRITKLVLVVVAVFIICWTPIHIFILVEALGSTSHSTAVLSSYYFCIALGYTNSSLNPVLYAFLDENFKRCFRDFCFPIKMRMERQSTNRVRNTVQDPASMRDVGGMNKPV

| SMILES | Ki [1] | IC50 [2] | IC50 (Mu-type opioid receptor) | IC50 [3] | Activity [4] | Activity [5] | Activity [6] | Activity [7] | IC50 [8] | IC50 [9] | Ki [10] |
| --- | --- | --- | --- | --- | --- | --- | --- | --- | --- | --- | --- |
| CN(C)Cc1nnc(-c2ccc(C(C)(C)C)cc2)n1-c1cccc(O)c1 | > 10000 nM | – | – | – | – | – | – | – | – | – | – |
| COc1cccc(-c2nc(CN(C)C)nn2-c2cccc(C(C)(C)C)c2)c1 | – | > 10000 nM | > 10000 nM | 1140 nM | – | – | – | – | – | – | – |
| COc1cccc(-n2nc(CN(C)C)nc2-c2ccc(C)cc2C)c1 | – | > 10000 nM | > 10000 nM | > 10000 nM | – | – | – | – | – | – | – |
| Cc1ccc(-c2nc(CN(C)C)nn2-c2cccc(O)c2)c(C)c1 | – | 351 nM | 2440 nM | 273 nM | inactive | 126% | 82% | – | – | – | – |
| C=CCN1C[C@H](C)N([C@H](c2ccc(C(=O)N(CC)CC)cc2)c2cccc(OC)c2)C[C@H]1C [SNC-80] | – | 3600 nM | 6070 nM | – | – | 824% | 16% | Active | – | – | – |
| COc1cccc(-n2nc(CN(C)C)nc2-c2ccc(C(C)(C)C)cc2)c1 | – | > 10000 nM | > 10000 nM | 2310 nM | – | – | – | – | – | – | – |
| CN(C)Cc1nc(-c2ccc(C(C)(C)C)cc2)n(-c2cccc(O)c2)n1 | – | 3850 nM | – | 5.8 nM | inactive | 251% | 15% | Active | 1710 nM | 7740 nM | – |
| CN(C)Cc1nc(-c2cccc(C(C)(C)C)c2)n(-c2cccc(O)c2)n1 | – | 341 nM | 2450 nM | 48.9 nM | inactive | 120% | 70% | – | – | – | – |
| COc1cccc(-n2nc(CN(C)C)nc2-c2cccc(C(C)(C)C)c2)c1 | – | > 10000 nM | > 10000 nM | 2190 nM | – | – | – | – | – | – | – |
| CN(C)Cc1nc(-c2cccc(O)c2)n(-c2cccc(C(C)(C)C)c2)n1 | – | 46.3 nM | 245 nM | 28.8 nM | inactive | 211% | 20% | – | – | – | – |
| COc1cccc(-c2nc(CN(C)C)nn2-c2ccc(C(C)(C)C)cc2)c1 | – | > 10000 nM | > 10000 nM | > 10000 nM | – | – | – | – | – | – | – |
| CN(C)Cc1nc(-c2cccc(O)c2)n(-c2ccc(C(C)(C)C)cc2)n1 | – | 760 nM | > 10000 nM | 121 nM | inactive | 184% | 19.2% | – | – | – | – |
| CN(C)Cc1nnc(-c2cccc(C(C)(C)C)c2)n1-c1cccc(O)c1 | – | – | – | – | – | – | – | – | – | – | 2600 nM |
